From patent US9040529B2 (Vichem Chemie Kutató Kft., priority 2009, dated 2015)
Counter-ions that a name gives are not always drawn.

Target: T1, human CDK9/CyclinT kinase complex (Homo sapiens, UniProt P50750)
T1 construct: purchased Proqinase 0371-0345-1
Assay: In vitro CDK9/CyclinT assay (IMAP fluorescence polarization kinase assay)
Format: biochemical
Settings: for IC50: 5 nM CDK9/CyclinT, 400 nM TAMRA-Rbtide, 12 μM ATP, 1 hour at room temperature, read-out: CDK9 inhibitory range
Description: In Vitro CDK9/CyclinT Assay
The activity of the compounds described in the present invention can be determined by the following kinase assay, which measures the phosphorylation of a fluorescently-labeled peptide by human CDK9/CyclinT kinase complex by fluorescent polarization using a commercially available IMAP Screening Express Assay Kit (Molecular devices).
CDK9 kinase assays were performed in low protein binding 384-well plates (Corning 3676). Test compounds were diluted in 100% DMSO to 5 mM stock concentration, then further dilutions were made in H2O or 100% DMSO to desirable concentrations.
Each reaction consisted of 5 nM enzyme: CDK9/CyclinT (Proqinase cat#0371-0345-1), 400 nM TAMRA-Rbtide (synthetic 15-mer peptide derived from human retinoblastoma tumor suppressor protein labelled with TAMRA dye, Genecust Europe), 12 μM ATP (=Kmapp, Sigma-Aldrich) and kinase buffer: 20 mM MOPS pH 7 (Sigma-Aldrich), 1 mM DTT (Sigma-Aldrich), 10 mM MgCl2 (Sigma-Aldrich), 0.01% Tween 20 (Sigma-Aldrich).
For each reaction, 4 or 6 μl containing TAMRA-Rbtide, ATP and kianse buffer were combined with 2 μl diluted compound in H2O or 0.028 μl compound in 100% DMSO. The kinase reaction was started by the addition of 2 μl diluted enzyme. The reaction was allowed to run for 1 hours at room temperature. The reaction was stopped by adding 15 μl IMAP beads (1:400 beads in progressive (100% buffer A) 1× buffer). After an additional 1 hours, fluorescent polarization (Ex: 550-10 nm, Em: 590-10 nm, Dich: 561 nm) was measured using an Analyst GT (Molecular devices).

T1 sequence (P50750 whole entry): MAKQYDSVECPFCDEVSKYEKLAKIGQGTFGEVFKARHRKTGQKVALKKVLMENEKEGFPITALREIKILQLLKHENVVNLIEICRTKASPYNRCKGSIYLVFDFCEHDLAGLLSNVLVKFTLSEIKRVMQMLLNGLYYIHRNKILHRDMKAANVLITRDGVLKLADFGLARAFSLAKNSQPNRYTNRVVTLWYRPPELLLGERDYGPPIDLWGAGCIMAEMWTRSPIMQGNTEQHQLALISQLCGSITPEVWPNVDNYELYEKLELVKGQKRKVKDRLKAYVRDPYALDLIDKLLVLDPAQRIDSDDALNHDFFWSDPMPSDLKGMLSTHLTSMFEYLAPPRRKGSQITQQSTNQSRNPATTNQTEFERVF
T1 sequence (O60563 whole entry partner): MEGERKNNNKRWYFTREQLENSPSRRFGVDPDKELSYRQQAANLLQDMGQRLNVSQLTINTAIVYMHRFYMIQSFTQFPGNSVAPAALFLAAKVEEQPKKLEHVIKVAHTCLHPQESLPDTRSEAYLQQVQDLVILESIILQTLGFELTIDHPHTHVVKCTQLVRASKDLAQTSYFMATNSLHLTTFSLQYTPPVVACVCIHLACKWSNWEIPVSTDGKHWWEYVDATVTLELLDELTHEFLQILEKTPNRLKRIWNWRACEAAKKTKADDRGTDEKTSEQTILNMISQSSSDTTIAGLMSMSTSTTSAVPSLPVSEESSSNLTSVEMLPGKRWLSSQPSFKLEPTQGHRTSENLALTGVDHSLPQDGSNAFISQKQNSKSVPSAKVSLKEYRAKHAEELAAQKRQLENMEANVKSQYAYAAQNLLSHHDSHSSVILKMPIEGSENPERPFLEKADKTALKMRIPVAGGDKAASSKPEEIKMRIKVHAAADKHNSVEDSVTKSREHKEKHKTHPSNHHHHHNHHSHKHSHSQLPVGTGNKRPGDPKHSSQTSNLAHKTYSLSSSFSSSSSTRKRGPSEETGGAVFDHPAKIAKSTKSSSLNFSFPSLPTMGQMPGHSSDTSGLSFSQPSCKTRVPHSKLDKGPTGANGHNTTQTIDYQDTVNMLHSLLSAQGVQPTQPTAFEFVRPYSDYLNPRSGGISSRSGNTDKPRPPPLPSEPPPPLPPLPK

Row | Structure (SMILES) | CDK9 inhibitory effect | IC50 [nM]
1 | COc1cc(F)ccc1-c1cc(Nc2cccc(Cn3c(CN4CCOCC4)nc4ccccc43)c2)ncn1 [Example 94, [6-(4-Fluoro-2-methoxy-phenyl)-pyrimidin-4-yl]-[3-(2-morpholin-4-ylmethyl-benzoimidazol-1-ylmethyl)-phenyl]-amine] | – | < 10000
2 | CS(=O)(=O)NCc1ccc(Nc2cc(-c3cccc(N)c3)ncn2)cc1 [Example 46, N-{4-[6-(3-Amino-phenyl)-pyrimidin-4-ylamino]-benzyl}-methanesulfonamide hydrochloride] | – | < 10000
3 | Clc1cc(Nc2cccc(Cn3c(CN4CCOCC4)nc4ccccc43)c2)ncn1 [Example 92, (6-Chloro-pyrimidin-4-yl)-[3-(2-morpholin-4-ylmethyl-benzoimidazol-1-ylmethyl)-phenyl]amine] | – | > 10000
4 | COc1ccc(F)cc1-c1cc(Nc2ccc(CNS(C)(=O)=O)cc2)ncn1 [Example 38, N-{4-[6-(5-Fluoro-2-methoxy-phenyl)-pyrimidin-4-ylamino]-benzyl}-methanesulfonamide] | – | < 1000
5 | CSc1ccccc1-c1cc(Nc2ccc(CNS(C)(=O)=O)cc2)ncn1 [Example 41, N-{4-[6-(2-Methylsulfanyl-phenyl)-pyrimidin-4-ylamino]-benzyl}-methanesulfonamide] | – | < 1000
6 | CS(=O)(=O)NCc1cccc(Nc2cc(-c3cccc4c3OCO4)ncn2)c1 [Example 27, N-[3-(6-Benzo[1,3]dioxol-4-yl-pyrimidin-4-ylamino)-benzyl]-methanesulfonamide] | – | < 1000
7 | CS(=O)(=O)NCc1ccc(Nc2cc(-c3ccccc3Oc3ccccc3)ncn2)cc1 [Example 40, N-{4-[6-(2-Phenoxy-phenyl)-pyrimidin-4-ylamino]-benzyl}-methanesulfonamide] | – | < 1000
8 | CS(=O)(=O)NCc1cccc(Nc2cc(-c3cccc(N)c3)ncn2)c1 [Example 22, N-{3-[6-(3-Amino-phenyl)-pyrimidin-4-ylamino]-benzyl}-methanesulfonamide] | – | < 1000
9 | CS(=O)(=O)NCc1cccc(Nc2cc(-c3ccc(F)cc3F)ncn2)c1 [Example 17, N-{3-[6-(2,4-Difluoro-phenyl)-pyrimidin-4-ylamino]-benzyl}-methanesulfonamide] | – | < 10000
10 | Clc1cc(Nc2cccc(Cn3cnc4ccccc43)c2)ncn1 [Example 63, (3-Benzoimidazol-1-ylmethyl-phenyl)-(6-chloro-pyrimidin-4-yl)-amine] | – | < 10000
11 | CS(=O)(=O)NCc1ccc(Nc2cc(-c3ccccc3OCc3ccc(F)cc3)ncn2)cc1 [Example 36, N-(4-{6-[2-(4-Fluoro-benzyloxy)-phenyl]-pyrimidin-4-ylamino}-benzyl)-methanesulfonamide] | – | < 1000
12 | CCc1ccccc1-c1cc(Nc2cccc(CNS(C)(=O)=O)c2)ncn1 [Example 12, N-{3-[6-(2-Ethyl-phenyl)-pyrimidin-4-ylamino]-benzyl}-methanesulfonamide] | – | < 1000

Second part, the compound after the results:

Row | CDK9 inhibitory effect | IC50 [nM] | Structure (SMILES)
13 | nanomolar or low nanomolar range | < 100 | CCCOc1ccccc1-c1cc(Nc2ccc(CNS(C)(=O)=O)cc2)ncn1 [Example 53, N-{4-[6-(2-Propoxy-phenyl)-pyrimidin-4-ylamino]-benzyl}-methanesulfonamide]
14 | – | < 1000 | COc1cc(F)ccc1-c1cc(Nc2cccc(CNc3nc4ccccc4[nH]3)c2)ncn1 [Example 61, (1H-Benzoimidazol-2-yl)-{3-[6-(4-fluoro-2-methoxy-phenyl)-pyrimidin-4-ylamino]-benzyl}-amine]
15 | – | < 1000 | Oc1ccc(-c2cc(Nc3cccc(CNc4nc5ccccc5[nH]4)c3)ncn2)cc1 [Example 78, 4-(6-{3-[(1H-Benzoimidazol-2-ylamino)-methyl]-phenylamino}-pyrimidin-4-yl)-phenol]
16 | – | < 1000 | COc1cccc(-c2cc(Nc3cccc(CNS(C)(=O)=O)c3)ncn2)c1OC [Example 23, N-{3-[6-(2,3-Dimethoxy-phenyl)-pyrimidin-4-ylamino]-benzyl}-methanesulfonamide]
17 | – | < 1000 | Oc1ccc(-c2cc(Nc3cccc(Cn4cnc5ccccc54)c3)ncn2)cc1 [Example 82, 4-[6-(3-Benzoimidazol-1-ylmethyl-phenylamino)-pyrimidin-4-yl]-phenol]
18 | – | < 1000 | COc1ccc(F)cc1-c1cc(Nc2cccc(CNS(C)(=O)=O)c2)ncn1 [Example 9, N-{3-[6-(5-Fluoro-2-methoxy-phenyl)-pyrimidin-4-ylamino]-benzyl}-methanesulfonamide]
19 | nanomolar or low nanomolar range | < 100 | CCCS(=O)(=O)NCc1cccc(Nc2cc(-c3ccccc3OC)ncn2)c1 [Example 71, Propane-1-sulfonic acid 3-[6-(2-methoxy-phenyl)-pyrimidin-4-ylamino]-benzylamide]
20 | nanomolar or low nanomolar range | < 100 | COc1cccc(F)c1-c1cc(Nc2cccc(CNS(C)(=O)=O)c2)ncn1 [Example 13, N-{3-[6-(2-Fluoro-6-methoxy-phenyl)-pyrimidin-4-ylamino]-benzyl}-methanesulfonamide]
21 | nanomolar or low nanomolar range | < 100 | CCOc1ccccc1-c1cc(Nc2cccc(CNS(C)(=O)=O)c2)ncn1 [Example 5, N-{3-[6-(2-Ethoxy-phenyl)-pyrimidin-4-ylamino]-benzyl}-methanesulfonamide]
22 | nanomolar or low nanomolar range | < 100 | CS(=O)(=O)NCc1ccc(Nc2cc(-c3ccccc3OCc3ccccc3)ncn2)cc1 [Example 35, N-{4-[6-(2-Benzyloxy-phenyl)-pyrimidin-4-ylamino]-benzyl}-methanesulfonamide]
